ChEMBL document CHEMBL1138016, “Azaadamantane benzamide 5-HT4 agonists: gastrointestinal prokinetic SC-54750” (Bioorg Med Chem Lett, 2004)
One block for each molecule: values may come before it.

What was measured:
[1] = molecular target: T1, Adrenergic receptor alpha-2 (Homo sapiens, UniProt P08913+P18825+P18089); assay: Concentration required for inhibition of alpha-2 adrenergic receptor; type: protein assay
T1 sequence (P08913 whole entry): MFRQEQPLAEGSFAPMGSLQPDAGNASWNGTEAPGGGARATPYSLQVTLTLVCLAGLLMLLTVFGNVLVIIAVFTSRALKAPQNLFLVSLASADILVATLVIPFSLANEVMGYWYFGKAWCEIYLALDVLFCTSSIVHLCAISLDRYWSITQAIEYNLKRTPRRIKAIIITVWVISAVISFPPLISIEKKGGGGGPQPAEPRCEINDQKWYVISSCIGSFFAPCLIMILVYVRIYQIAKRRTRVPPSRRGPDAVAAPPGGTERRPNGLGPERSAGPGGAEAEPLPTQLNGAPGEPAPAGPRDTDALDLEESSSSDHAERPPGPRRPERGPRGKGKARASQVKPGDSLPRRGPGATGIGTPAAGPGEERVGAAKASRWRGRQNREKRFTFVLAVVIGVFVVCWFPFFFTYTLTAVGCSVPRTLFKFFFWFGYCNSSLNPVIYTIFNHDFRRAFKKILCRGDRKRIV
T1 sequence (P18825 whole entry): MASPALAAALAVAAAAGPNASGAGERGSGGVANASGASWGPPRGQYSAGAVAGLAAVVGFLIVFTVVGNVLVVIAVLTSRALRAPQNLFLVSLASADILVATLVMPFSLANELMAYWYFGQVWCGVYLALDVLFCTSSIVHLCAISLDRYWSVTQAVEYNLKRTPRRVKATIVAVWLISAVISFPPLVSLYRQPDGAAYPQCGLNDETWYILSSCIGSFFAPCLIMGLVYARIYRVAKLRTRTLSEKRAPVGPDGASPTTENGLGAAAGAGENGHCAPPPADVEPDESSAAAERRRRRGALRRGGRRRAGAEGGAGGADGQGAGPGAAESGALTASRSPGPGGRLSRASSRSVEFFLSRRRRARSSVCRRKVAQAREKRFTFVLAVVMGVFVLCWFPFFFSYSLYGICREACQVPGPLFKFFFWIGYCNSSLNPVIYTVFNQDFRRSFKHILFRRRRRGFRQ
T1 sequence (P18089 whole entry): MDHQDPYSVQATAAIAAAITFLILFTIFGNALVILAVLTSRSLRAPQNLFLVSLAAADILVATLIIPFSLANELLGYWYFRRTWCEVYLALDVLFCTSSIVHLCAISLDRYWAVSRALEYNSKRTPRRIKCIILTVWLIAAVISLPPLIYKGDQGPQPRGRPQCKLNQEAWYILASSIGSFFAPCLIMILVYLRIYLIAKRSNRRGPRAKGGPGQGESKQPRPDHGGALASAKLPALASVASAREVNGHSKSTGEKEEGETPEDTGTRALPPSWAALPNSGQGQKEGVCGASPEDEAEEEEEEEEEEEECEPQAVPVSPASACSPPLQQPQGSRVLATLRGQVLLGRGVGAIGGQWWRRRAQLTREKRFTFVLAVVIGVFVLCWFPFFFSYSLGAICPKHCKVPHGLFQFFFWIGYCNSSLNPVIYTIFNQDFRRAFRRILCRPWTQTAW

[2] = molecular target: T2, Adrenergic receptor alpha-1 (Homo sapiens, UniProt P35348+P25100+P35368); assay: Concentration required for inhibition of alpha-1 adrenergic receptor using [3H]prazosin as the radioligand; type: protein assay
T2 sequence (P35348 whole entry): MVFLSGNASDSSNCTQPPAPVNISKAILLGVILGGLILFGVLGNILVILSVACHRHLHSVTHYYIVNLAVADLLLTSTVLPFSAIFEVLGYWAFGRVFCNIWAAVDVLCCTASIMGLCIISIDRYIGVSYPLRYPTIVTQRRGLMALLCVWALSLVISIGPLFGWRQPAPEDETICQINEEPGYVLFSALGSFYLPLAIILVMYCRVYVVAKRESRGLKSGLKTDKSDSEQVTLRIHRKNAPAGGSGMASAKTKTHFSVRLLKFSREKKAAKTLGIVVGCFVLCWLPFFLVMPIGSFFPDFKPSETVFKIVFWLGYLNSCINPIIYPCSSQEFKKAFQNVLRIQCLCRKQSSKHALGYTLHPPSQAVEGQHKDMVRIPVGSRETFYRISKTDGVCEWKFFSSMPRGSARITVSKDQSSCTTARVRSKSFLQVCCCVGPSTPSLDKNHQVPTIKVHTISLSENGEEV
T2 sequence (P25100 whole entry): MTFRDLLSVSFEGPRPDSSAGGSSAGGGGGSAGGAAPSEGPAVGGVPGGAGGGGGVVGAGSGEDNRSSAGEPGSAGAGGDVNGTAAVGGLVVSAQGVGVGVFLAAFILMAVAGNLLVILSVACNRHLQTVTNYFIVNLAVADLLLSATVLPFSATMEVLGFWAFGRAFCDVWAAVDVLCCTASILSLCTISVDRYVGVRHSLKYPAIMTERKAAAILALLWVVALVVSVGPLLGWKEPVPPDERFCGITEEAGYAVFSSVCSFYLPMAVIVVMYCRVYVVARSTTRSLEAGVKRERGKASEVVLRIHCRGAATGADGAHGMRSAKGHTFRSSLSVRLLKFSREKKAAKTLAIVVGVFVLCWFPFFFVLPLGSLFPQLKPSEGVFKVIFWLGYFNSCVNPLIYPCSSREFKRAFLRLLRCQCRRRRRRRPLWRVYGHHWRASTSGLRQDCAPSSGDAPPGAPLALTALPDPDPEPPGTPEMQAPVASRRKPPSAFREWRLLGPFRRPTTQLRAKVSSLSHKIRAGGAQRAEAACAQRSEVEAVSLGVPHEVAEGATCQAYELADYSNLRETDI
T2 sequence (P35368 whole entry): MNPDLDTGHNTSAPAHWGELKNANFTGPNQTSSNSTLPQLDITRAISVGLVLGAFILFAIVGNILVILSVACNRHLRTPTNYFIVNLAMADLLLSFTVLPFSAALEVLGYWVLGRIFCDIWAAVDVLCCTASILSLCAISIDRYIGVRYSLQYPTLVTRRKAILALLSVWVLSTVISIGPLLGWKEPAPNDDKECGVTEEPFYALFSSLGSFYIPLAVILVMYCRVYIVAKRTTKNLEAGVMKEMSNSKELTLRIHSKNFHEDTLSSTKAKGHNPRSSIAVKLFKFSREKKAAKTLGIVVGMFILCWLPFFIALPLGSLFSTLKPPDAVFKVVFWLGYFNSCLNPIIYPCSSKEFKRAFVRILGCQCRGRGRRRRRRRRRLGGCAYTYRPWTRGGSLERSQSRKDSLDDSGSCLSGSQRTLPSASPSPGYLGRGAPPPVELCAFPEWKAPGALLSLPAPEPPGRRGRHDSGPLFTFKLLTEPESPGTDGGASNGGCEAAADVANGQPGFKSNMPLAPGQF

[3] = Concentration required for inhibition of 5-hydroxytryptamine 1 receptor using [3H]-5-HT as the radioligand
[4] = Concentration required for inhibition of Dopamine receptor D1 using [3H]SCH-23,390 as the radioligand
[5] = Concentration required for inhibition of Dopamine receptor D2 using [3H]spiperone as the radioligand
[6] = molecular target: Serotonin 2 (5-HT2) receptor (Homo sapiens, UniProt P41595+P28223+P28335); type: protein assay
[7] = Effective dose required towards 5-hydroxytryptamine 4 receptor as agonism in rat tunica muscularis mucosae (TMM)
[8] = Concentration required for inhibition of 5-hydroxytryptamine 3 receptor using [3H]GR-65630 as the radioligand
Adrenergic receptor beta = Adrenergic receptor beta (Homo sapiens, UniProt P08588+P07550+P13945); assay: Concentration required for inhibition of beta adrenergic receptor; type: protein assay
[9] = molecular target: T3, Serotonin 3 receptor (5HT3) (Mus musculus) (UniProt Q9JHJ5+P23979); assay: Percent inhibition of 5-hydroxytryptamine 3 receptor after intraperitoneal administration at dose of 10 mpk was determined in mice by Von Bezold-Jarisch reflex assay
T3 sequence (P23979 whole entry, looked up): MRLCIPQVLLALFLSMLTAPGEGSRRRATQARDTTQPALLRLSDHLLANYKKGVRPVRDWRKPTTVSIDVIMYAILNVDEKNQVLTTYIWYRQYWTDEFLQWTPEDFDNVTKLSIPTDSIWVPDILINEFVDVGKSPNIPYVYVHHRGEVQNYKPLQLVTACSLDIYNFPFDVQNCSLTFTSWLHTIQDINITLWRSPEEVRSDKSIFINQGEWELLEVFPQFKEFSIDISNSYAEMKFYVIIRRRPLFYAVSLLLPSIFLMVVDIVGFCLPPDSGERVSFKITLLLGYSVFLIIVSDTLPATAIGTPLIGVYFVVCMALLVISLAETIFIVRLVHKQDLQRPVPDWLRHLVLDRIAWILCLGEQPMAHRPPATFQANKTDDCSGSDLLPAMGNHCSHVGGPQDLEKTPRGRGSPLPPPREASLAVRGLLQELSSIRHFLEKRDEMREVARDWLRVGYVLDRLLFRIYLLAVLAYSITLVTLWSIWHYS
T3 sequence (Q9JHJ5 whole entry, looked up): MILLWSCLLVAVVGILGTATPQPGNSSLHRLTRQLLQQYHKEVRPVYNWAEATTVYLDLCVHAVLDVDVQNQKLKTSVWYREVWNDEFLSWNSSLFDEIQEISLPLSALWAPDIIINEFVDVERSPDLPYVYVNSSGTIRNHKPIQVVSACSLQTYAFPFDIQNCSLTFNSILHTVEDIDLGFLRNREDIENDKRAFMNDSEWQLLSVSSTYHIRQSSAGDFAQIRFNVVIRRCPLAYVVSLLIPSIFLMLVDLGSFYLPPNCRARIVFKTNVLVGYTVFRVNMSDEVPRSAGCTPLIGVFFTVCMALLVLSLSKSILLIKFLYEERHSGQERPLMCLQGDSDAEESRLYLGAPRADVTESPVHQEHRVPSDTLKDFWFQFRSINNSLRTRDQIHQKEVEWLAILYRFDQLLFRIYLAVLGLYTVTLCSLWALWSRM

[10] = molecular target: T3, Serotonin 3 receptor (5HT3) (Mus musculus); assay: Percent inhibition of 5-hydroxytryptamine 3 receptor after intraperitoneal administration at dose of 1 mpk was determined in mice by Von Bezold-Jarisch reflex assay
[11] = molecular target: T3, Serotonin 3 receptor (5HT3) (Mus musculus); assay: Percent inhibition of 5-hydroxytryptamine 3 receptor after intraperitoneal administration at dose of 3 mpk was determined in mice by Von Bezold-Jarisch reflex assay
[12] = molecular target: T4, Serotonin 3 (5-HT3) receptor (Rattus norvegicus, UniProt P35563+Q9JJ16); assay: Binding affinity towards 5-hydroxytryptamine 3 receptor using [3H]GR-65630 as the radioligand in male rat cortical tissue; type: protein-complex assay
T4 sequence (P35563 whole entry): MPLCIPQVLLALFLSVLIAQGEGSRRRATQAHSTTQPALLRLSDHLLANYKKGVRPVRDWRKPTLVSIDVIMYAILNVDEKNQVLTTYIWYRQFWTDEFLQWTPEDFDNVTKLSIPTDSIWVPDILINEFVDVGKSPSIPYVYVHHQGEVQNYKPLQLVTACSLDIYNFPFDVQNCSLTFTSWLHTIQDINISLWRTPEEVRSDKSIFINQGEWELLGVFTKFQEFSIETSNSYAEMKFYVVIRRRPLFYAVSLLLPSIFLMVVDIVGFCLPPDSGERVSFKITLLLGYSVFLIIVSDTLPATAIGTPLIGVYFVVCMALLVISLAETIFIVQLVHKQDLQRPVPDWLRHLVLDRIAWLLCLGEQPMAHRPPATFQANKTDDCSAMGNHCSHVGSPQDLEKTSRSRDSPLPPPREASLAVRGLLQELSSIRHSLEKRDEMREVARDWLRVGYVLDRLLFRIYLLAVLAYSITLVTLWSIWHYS
T4 sequence (Q9JJ16 whole entry): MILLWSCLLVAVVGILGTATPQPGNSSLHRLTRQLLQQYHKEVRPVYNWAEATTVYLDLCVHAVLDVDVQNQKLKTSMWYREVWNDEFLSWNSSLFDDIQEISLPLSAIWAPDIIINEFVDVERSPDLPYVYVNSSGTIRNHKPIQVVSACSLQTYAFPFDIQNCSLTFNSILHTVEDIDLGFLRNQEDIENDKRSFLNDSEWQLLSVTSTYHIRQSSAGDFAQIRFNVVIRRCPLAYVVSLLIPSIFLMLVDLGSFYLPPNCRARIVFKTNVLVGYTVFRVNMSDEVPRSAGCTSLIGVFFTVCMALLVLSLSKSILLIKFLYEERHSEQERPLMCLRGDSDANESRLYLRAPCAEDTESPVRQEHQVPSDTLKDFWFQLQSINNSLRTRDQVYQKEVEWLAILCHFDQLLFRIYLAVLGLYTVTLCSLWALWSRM

[13] = molecular target: T3, Serotonin 3 receptor (5HT3) (Mus musculus); assay: Percent inhibition of 5-hydroxytryptamine 3 receptor after intraperitoneal administration at dose of 0.3 mpk was determined in mice by Von Bezold-Jarisch reflex assay
[14] = molecular target: T3, Serotonin 3 receptor (5HT3) (Mus musculus); assay: Percent inhibition of 5-hydroxytryptamine 3 receptor after intraperitoneal administration at dose of 0.03 mpk was determined in mice by Von Bezold-Jarisch reflex assay
[15] = molecular target: T3, Serotonin 3 receptor (5HT3) (Mus musculus); assay: Percent inhibition of 5-hydroxytryptamine 3 receptor after intraperitoneal administration at dose of 0.1 mpk was determined in mice by Von Bezold-Jarisch reflex assay
[16] = molecular target: T3, Serotonin 3 receptor (5HT3) (Mus musculus); assay: Percent inhibition of 5-hydroxytryptamine 3 receptor after intraperitoneal administration at dose of 8 mpk was determined in mice by Von Bezold-Jarisch reflex assay

IC50 [1]: > 10 µM | IC50 [2]: > 10 µM | IC50 [3]: > 10 µM | IC50 [4]: > 10 µM | IC50 [5]: > 10 µM | IC50 [6]: > 10 µM | ED50 [7]: 0.0513 µM | IC50 [8]: 0.0023 µM | IC50 (Adrenergic receptor beta): > 10 µM
SMILES: COc1cc(N)c(Cl)cc1C(=O)N[C@@H]1C2CC3CN(C2)CC31 (stereo not given in full)

inhibition [9]: 85% | inhibition [10]: 0% | inhibition [11]: 82%
SMILES: COc1cc(N)c(Cl)cc1C(=O)NCC1C2CC3CC1CN(C3)C2 (stereo in doubt; 9d) [listing 1 of 2 here]

IC50 [2]: 0.03 µM | IC50 [3]: > 10 µM | IC50 [4]: 1.7 µM | ED50 [7]: 0.0547 µM | IC50 (Adrenergic receptor beta): > 10 µM
SMILES: COc1cc(N)c(Cl)cc1C(=O)NC1CCN(CCCOc2ccc(F)cc2)CC1OC (stereo not given) [CISAPRIDE]

Ki [12]: 0.144 µM | IC50 [8]: 0.011 µM
SMILES: COc1cc(N)c(Cl)cc1C(=O)NCC1C2CC3CC1CN(C3)C2 (stereo in doubt; 9d) [listing 2 of 2 here]

inhibition [9]: 88% | inhibition [10]: 82% | inhibition [13]: 75% | inhibition [14]: 0% | inhibition [15]: 60% | inhibition [16]: 82%
SMILES: COc1cc(N)c(Cl)cc1C(=O)NCC1C2CC3CC1CN(C3)C2 (stereo in doubt; 9c)

inhibition [9]: 86% | inhibition [10]: 75% | inhibition [13]: 70% | inhibition [14]: 61% | ED50 [7]: 0.262 µM | inhibition [11]: 81% | inhibition [15]: 64%
SMILES: COc1cc(N)c(Cl)cc1C(=O)NC1C2CC3CC1CN(C3)C2 (stereo in doubt; 9b)

inhibition [9]: 85% | ED50 [7]: 0.538 µM | inhibition [11]: 0%
SMILES: COc1cc(N)c(Cl)cc1C(=O)NC1C2CC3CC1CN(C3)C2 (stereo in doubt; 9a)
